Results on 13 compounds are retold here after ChEMBL document CHEMBL5291721, “A preclinical secondary pharmacology resource illuminates target-adverse drug reaction associations of marketed drugs” (Nat Commun, 2023).

For test [1], the target named is T1, Adenosine receptor A1 (Homo sapiens, UniProt P30542).
T1 sequence (P30542 whole entry): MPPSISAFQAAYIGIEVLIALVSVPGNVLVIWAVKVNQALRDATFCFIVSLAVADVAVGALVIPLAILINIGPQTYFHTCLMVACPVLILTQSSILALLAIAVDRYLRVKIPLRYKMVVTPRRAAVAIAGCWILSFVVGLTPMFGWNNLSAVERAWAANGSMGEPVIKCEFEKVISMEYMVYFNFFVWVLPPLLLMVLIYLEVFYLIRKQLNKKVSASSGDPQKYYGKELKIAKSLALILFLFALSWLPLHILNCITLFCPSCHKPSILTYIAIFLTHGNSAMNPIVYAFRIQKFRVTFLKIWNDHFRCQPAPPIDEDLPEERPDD

Test [2] addresses T2, Adenosine receptor A3 (Homo sapiens, UniProt P0DMS8).
T2 sequence (P0DMS8 whole entry): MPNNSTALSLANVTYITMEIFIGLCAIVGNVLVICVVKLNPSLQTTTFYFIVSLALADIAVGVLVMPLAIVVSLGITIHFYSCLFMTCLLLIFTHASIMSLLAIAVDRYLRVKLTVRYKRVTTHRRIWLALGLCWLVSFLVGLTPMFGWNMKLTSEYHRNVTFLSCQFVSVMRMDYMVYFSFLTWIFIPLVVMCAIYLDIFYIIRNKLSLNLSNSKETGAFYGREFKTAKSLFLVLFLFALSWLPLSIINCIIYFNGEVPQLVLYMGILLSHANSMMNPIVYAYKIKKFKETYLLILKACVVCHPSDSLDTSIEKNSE

For test [3], the target named is D(1A) dopamine receptor (Homo sapiens, UniProt P21728). Type of test: functional, cell-based.
Chain of D(1A) dopamine receptor (P21728 whole entry): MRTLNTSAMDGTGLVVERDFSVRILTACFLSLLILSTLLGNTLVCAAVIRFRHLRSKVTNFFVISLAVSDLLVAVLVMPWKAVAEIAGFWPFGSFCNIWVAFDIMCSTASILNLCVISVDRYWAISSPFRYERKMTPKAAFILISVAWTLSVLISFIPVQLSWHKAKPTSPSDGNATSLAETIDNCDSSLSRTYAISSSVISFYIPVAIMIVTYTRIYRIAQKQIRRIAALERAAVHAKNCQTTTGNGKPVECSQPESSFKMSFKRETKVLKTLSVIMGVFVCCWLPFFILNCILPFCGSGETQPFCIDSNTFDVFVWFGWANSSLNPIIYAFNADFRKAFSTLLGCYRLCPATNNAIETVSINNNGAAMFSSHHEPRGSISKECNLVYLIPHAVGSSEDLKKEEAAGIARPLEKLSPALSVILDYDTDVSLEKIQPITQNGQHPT
Test [4] deals with 5-hydroxytryptamine receptor 2B (Homo sapiens, UniProt P41595). The test is classed as functional, cell-based.
Chain of 5-hydroxytryptamine receptor 2B (P41595 whole entry): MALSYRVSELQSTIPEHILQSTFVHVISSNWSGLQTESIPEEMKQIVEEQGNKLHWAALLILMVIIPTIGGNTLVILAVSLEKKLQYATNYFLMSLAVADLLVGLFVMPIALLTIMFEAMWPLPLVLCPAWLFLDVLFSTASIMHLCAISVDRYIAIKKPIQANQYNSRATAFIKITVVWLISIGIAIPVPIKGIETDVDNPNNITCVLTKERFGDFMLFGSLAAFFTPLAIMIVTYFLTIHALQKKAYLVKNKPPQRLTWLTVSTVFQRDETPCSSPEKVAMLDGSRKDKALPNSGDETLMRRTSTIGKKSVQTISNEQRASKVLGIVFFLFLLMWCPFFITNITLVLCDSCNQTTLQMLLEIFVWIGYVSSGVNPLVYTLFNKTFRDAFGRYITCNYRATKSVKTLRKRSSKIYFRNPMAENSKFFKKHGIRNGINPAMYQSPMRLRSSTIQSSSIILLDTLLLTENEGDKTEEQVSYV
For test [5], the target named is T3, 5-hydroxytryptamine receptor 2C (Homo sapiens, UniProt P28335).
T3 sequence (P28335 whole entry): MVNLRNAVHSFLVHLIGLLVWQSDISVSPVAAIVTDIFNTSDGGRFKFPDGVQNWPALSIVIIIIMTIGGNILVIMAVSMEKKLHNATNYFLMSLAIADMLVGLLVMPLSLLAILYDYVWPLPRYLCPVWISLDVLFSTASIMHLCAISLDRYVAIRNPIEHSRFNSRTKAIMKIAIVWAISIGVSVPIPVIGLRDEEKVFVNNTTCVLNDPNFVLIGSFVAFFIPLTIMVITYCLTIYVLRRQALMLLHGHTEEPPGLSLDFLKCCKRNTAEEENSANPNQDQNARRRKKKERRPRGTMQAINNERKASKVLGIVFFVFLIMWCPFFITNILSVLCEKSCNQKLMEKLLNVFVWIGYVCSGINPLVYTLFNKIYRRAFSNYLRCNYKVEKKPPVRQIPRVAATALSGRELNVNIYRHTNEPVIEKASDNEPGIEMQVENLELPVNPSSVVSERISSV

The target in test [6] is Melanocortin receptor 3 (Homo sapiens, UniProt P41968).
Chain of Melanocortin receptor 3 (P41968 whole entry): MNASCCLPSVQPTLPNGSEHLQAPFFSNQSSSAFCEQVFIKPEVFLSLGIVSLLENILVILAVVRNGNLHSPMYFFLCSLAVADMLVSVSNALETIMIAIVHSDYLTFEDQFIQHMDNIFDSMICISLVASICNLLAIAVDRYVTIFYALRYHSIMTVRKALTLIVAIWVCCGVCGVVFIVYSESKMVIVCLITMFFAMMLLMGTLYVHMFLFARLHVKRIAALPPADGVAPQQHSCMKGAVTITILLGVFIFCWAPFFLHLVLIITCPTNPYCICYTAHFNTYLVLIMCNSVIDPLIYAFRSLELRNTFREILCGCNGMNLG
For test [7], the target named is T4, Glucocorticoid receptor (Homo sapiens, UniProt P04150).
T4 sequence (P04150 whole entry): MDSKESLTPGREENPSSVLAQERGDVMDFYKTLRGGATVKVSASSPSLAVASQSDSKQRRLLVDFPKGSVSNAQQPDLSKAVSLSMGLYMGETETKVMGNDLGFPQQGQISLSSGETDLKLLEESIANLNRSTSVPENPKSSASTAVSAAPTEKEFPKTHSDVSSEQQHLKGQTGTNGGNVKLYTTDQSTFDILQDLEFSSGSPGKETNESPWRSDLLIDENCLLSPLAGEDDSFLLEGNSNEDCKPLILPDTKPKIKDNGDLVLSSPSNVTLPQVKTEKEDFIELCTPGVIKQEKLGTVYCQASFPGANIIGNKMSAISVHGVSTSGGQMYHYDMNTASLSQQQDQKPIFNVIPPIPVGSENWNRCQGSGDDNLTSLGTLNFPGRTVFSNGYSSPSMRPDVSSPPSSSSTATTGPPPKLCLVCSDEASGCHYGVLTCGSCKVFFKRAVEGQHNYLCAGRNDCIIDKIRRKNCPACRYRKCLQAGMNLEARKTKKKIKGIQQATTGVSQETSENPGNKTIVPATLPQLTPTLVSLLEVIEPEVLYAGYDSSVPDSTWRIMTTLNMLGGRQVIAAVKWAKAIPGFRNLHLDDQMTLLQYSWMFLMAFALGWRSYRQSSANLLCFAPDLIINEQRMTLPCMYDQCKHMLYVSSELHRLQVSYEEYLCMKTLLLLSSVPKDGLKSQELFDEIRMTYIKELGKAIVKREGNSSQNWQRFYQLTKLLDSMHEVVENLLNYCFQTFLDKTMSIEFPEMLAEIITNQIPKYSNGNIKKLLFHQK

Test [8] addresses T5, Thromboxane A2 receptor (Homo sapiens, UniProt P21731).
T5 sequence (P21731 whole entry): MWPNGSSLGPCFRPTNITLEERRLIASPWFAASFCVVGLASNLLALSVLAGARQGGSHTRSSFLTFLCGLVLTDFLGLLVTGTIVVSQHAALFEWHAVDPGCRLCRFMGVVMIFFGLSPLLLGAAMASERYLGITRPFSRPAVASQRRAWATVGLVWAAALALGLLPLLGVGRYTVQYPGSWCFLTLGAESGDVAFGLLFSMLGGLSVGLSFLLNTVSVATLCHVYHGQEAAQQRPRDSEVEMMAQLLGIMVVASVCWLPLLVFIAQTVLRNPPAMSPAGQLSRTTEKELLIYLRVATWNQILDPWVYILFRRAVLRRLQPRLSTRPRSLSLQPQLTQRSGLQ

For test [9], the target named is cGMP-inhibited 3',5'-cyclic phosphodiesterase 3A (Homo sapiens, UniProt Q14432). The test is classed as functional.
Chain of cGMP-inhibited 3',5'-cyclic phosphodiesterase 3A (Q14432 whole entry): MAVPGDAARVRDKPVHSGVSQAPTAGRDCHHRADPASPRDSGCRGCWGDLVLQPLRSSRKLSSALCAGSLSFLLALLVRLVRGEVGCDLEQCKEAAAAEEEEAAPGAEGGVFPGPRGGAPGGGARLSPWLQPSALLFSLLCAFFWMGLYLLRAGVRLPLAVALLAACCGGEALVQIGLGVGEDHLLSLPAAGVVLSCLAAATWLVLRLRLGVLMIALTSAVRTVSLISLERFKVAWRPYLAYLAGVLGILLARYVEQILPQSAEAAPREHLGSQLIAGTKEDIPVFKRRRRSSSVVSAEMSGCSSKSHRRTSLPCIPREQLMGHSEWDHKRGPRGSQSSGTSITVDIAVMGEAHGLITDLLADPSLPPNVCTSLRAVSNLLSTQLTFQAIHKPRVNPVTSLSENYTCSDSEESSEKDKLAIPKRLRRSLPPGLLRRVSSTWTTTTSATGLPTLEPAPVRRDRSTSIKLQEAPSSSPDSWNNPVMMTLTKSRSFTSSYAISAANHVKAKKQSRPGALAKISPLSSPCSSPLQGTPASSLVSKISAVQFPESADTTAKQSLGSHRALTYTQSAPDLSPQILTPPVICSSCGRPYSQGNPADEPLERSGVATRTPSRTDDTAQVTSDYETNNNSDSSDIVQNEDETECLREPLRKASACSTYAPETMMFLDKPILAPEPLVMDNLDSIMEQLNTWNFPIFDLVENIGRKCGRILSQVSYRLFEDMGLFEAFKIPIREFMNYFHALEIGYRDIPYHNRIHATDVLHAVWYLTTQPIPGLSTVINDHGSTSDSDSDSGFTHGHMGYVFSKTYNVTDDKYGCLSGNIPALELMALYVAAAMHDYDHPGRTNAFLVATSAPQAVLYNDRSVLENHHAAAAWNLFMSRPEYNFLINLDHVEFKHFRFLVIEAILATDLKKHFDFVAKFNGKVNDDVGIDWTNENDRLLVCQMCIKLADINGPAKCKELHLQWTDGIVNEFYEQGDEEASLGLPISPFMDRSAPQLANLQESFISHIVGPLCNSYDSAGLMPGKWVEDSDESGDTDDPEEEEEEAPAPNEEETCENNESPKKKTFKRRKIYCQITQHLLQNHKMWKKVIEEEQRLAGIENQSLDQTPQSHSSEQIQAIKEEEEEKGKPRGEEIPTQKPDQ
The target of test [10] is D(3) dopamine receptor (Homo sapiens, UniProt P35462).
Chain of D(3) dopamine receptor (P35462 whole entry): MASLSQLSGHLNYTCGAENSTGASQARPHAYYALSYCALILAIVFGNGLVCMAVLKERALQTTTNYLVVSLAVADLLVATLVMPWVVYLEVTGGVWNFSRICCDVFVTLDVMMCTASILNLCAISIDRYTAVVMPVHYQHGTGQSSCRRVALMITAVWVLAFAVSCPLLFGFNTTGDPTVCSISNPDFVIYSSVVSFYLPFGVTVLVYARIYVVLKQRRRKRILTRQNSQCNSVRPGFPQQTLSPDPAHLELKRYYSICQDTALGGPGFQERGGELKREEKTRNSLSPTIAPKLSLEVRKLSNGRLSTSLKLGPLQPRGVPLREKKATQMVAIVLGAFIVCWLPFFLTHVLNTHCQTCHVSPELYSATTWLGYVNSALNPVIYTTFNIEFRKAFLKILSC
Note: assay procedure not described here.

Take `O=C(CCCN1CCC(O)(c2ccc(Br)cc2)CC1)c1ccc(F)cc1` [BROMPERIDOL]: the AC50 (as a rule, the concentration at which the activity in the assay is half-maximal) is > 30 µM in [1]; > 30 µM in test [2]; > 30 µM in test [3]; 7.3 µM in test [4]; > 30 µM in [5]; > 30 µM in test [6]. Also, the AC50 in test [7] is > 30 µM; in test [8], > 30 µM; in test [9], > 30 µM; in test [10] it was 0.041 µM.

As for `Clc1ccc(CCC(Cn2ccnc2)Sc2c(Cl)cccc2Cl)cc1` (stereo not given) [BUTOCONAZOLE], the AC50 in [1] is > 30 µM; in [2] it was 16 µM; in test [3], > 30 µM; in test [4], > 30 µM; in test [5] it was > 30 µM; in [6] it was > 30 µM. In addition, the AC50 in test [7] is 18 µM; in test [8], > 30 µM; in test [9] it was > 30 µM; in test [10] it was > 30 µM.

`CC(CN(C)C)C(C)(O)Cc1ccc(Cl)cc1` (stereo not given) [CLOBUTINOL]: the half-maximal activity concentration (AC50) was > 30 µM in [1]; > 30 µM in [2]; > 10 µM in test [3]; > 10 µM in test [4]; > 30 µM in [5]; > 30 µM in [6]. For the same compound, the AC50 in test [7], in test [8], in [9] and in [10] was > 30 µM each time.

Regarding `CCOC(=O)C(C)(C)Oc1ccc(Cl)cc1` [CLOFIBRATE], the AC50 in test [1] is > 30 µM; in test [2], > 30 µM; in [3] it was > 10 µM; in test [4], > 10 µM; in test [5] it was > 30 µM; in test [6], > 30 µM. Further, the AC50 in test [7], in test [8], in test [9] and in [10] was > 30 µM in each case.

With `CCN1CC(CCN2CCOCC2)C(c2ccccc2)(c2ccccc2)C1=O` (stereo not given) [DOXAPRAM], the AC50 in test [1] was > 30 µM; in test [2], > 30 µM; in test [3], > 30 µM; in test [4], > 30 µM; in [5] it was 0.071 µM; in test [6], > 30 µM. In addition, the half-maximal activity concentration (AC50) in test [7], in [8], in test [9] and in test [10] was > 30 µM in each case.

On to `CCCCOc1ccc(C(=O)CCN2CCCCC2)cc1` [DYCLONINE], for which the AC50 is > 30 µM in test [1]; > 30 µM in test [2]; > 10 µM in test [3]; > 10 µM in test [4]; > 10 µM in test [5]; > 30 µM in test [6]. The AC50 in test [7] is > 30 µM; in test [8], > 30 µM; in [9], > 10 µM; in test [10], > 10 µM.

In the case of `CCc1cc2c(s1)-n1c(C)nnc1CN=C2c1ccccc1Cl` [ETIZOLAM], the AC50 in test [1], in [2], in [3], in test [4], in test [5] and in test [6] was > 30 µM each time. The AC50 in test [7], in [8], in test [9] and in test [10] was > 30 µM throughout.

As for `CC/C=C\C/C=C\C/C=C\C/C=C\C/C=C\CCCC(=O)OCC` [ICOSAPENT ETHYL], the AC50 in test [1] was > 30 µM; in test [2], 18 µM; in test [3], > 30 µM; in test [4], > 30 µM; in test [5], > 30 µM; in test [6] it was > 30 µM. In addition, the AC50 in [7], in test [8], in test [9] and in test [10] was > 30 µM throughout.

Turning to `NNC(=O)c1ccncc1` [ISONIAZID], the AC50 was > 30 µM in [1]; 32.7 µM in test [2]; > 30 µM in [3]; > 30 µM in test [4]; > 30 µM in test [5]; > 30 µM in test [6]. For the same compound, the concentration at half-maximal activity (AC50) in test [7], in [8], in test [9] and in test [10] was > 30 µM throughout.

Take `COc1ccc(CN2CCN(C(c3ccc(F)cc3)c3ccc(F)cc3)CC2)c(OC)c1OC` [LOMERIZINE]: the AC50 is > 30 µM in test [1]; 17 µM in test [2]; > 30 µM in test [3]; 5.9 µM in [4]; 16 µM in [5]; > 30 µM in test [6]. Further, the AC50 in test [7] was > 30 µM; in test [8] it was > 30 µM; in [9], > 30 µM; in test [10], 2.2 µM.

Turning to `O=C1Nc2ccc(Cl)cc2C(c2ccccc2Cl)=NC1O` (stereo not given) [LORAZEPAM], the AC50 in [1] was > 30 µM; in test [2] it was > 30 µM; in test [3], > 30 µM; in test [4], > 10 µM; in [5] it was > 30 µM; in test [6], > 30 µM. Also, the AC50 in [7] was > 30 µM; in [8], > 30 µM; in [9] it was > 30 µM; in test [10], > 10 µM.

For the compound `CN1CCN=C(c2ccccc2)c2cc(Cl)ccc21` [MEDAZEPAM], the AC50 in test [1] was > 30 µM; in test [2] it was 15 µM; in [3], > 30 µM; in test [4] it was > 30 µM; in test [5] it was 25 µM; in test [6], > 30 µM. In addition, the AC50 in test [7], in test [8], in test [9] and in test [10] was > 30 µM each time.

For the compound `CC(=O)[C@H]1CC[C@H]2[C@@H]3C[C@H](C)C4=CC(=O)CC[C@]4(C)[C@H]3[C@@H](O)C[C@]12C` [MEDRYSONE], the AC50 in [1] was > 10 µM; in test [2], > 10 µM; in test [3], > 10 µM; in test [4], > 10 µM; in test [5], > 30 µM; in test [6], > 10 µM. Besides, the AC50 in test [7] is 0.005 µM; in test [8], > 10 µM; in [9], > 30 µM; in [10], > 30 µM.
